Results from patent US20250041463A1, “FLUORINE-18 LABELED COMPOSITIONS AND THEIR USE IN IMAGING OF BIOLOGICAL TISSUE” (CORNELL UNIVERSITY, priority 2018, published 2025).

Test system: Nestin tv-a derived DIPG
Assay: Cell viability reference control (dasatinib)
Type: cell-based
Conditions: four parameter logistic standard curve regression, R^2=0.972

Cc1nc(Nc2ncc(C(=O)Nc3c(C)cccc3Cl)s2)cc(N2CCN(CCO)CC2)n1 [dasatinib]
IC50: 19 ± 20 nM
